The structures appear in SMILES notation.

The target in data set [1] is Cyclin-dependent kinase 5/CDK5 activator 1 (Homo sapiens, UniProt Q00535). The experiment in a line: Inhibition of human cdk5/p25 by SPA. The format is protein-complex assay.
Data set [2] can be described thus: Cytotoxicity against VeroC1008 cells at 6.25 to 50 ug/ml by neutral red uptake assay. As to conditions: chlorocebus sabaeus, vero. The format is cell-based.

Sequence of Cyclin-dependent kinase 5/CDK5 activator 1 (Q00535 whole entry): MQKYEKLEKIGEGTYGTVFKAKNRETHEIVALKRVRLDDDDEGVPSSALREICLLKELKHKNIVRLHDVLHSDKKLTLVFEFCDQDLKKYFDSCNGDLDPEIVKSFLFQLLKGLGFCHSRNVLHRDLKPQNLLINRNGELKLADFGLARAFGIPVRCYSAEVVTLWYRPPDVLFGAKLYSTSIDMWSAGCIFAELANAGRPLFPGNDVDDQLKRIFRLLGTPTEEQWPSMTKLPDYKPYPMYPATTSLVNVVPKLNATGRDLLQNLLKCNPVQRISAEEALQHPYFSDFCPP
Sequence of Cyclin-dependent kinase 5/CDK5 activator 1 (Q15078 whole entry, further chain): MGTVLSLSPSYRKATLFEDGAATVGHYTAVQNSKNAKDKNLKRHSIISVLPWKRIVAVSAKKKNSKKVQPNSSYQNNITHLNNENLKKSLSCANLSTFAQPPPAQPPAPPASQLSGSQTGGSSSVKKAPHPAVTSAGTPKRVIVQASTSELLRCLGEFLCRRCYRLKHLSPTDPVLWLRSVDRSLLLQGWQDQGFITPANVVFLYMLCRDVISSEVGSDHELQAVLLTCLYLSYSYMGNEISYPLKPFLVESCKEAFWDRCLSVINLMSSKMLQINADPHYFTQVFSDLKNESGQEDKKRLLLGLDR

`O=C(CCl)Nc1nc(Cc2nnc(S)n2NC(=O)c2ccc(Cl)cc2)cs1` returned a half-maximal inhibitory concentration (IC50) in data set [1] of 642 nM. In addition, the Activity entry in data set [2] is listed as “Non-toxic”.

Turning to `Nn1c(S)nnc1CSc1nnc(Cc2csc(NC(=O)CCl)n2)n1NC(=O)c1ccccc1`, half-maximal inhibition in data set [1] (IC50) was put at 6990 nM. Further, the Activity entry in data set [2] was “Non-toxic”.

Consider `CC(=O)NNC(=O)CSc1nnc(Cc2csc(NC(=O)CCl)n2)n1NC(=O)c1ccccc1`, for which the IC50 in data set [1] is 356 nM. The Activity result in data set [2] is “Non-toxic”.

In turn, `CC(=O)Nc1nc(Cc2nnc(SCC(=O)NN)n2NC(C)=O)cs1` returned an IC50 in data set [1] of 241 nM. Also, in data set [2], the Activity result is reported as “Non-toxic”.

On to `Nn1c(CSc2nnc(Cc3csc(NCCC(=O)O)n3)n2NC(=O)c2ccc(Cl)cc2)n[nH]c1=S`, for which the IC50 in data set [1] stood at 6650 nM. Further, the Activity result in data set [2] is recorded as “Non-toxic”.

`NNC(=O)CSc1nnc(Cc2csc(NCCC(=O)O)n2)n1NC(=O)c1ccccc1` had a 50% inhibitory concentration (IC50) in data set [1] of 465 nM. Besides, the Activity result in data set [2] is “Non-toxic”.

`CC(=O)Nn1c(Cc2csc(NCCC(=O)O)n2)nnc1SCSc1nnc(Cc2csc(NCCC(=O)O)n2)n1NC(C)=O` displayed an IC50 in data set [1] of 743 nM. In data set [2], the Activity result is listed as “Non-toxic”.

`CC(=O)Nn1c(Cc2csc(NC(=O)c3ccccc3)n2)nnc1SCC(=O)NN`: the IC50 in data set [1] worked out at 186 nM. The Activity result in data set [2] is on record as “Non-toxic”.

In turn, `O=C(Nc1nc(Cc2nnc(SCSc3nnc(Cc4csc(NC(=O)c5ccccc5)n4)n3NC(=O)c3ccccc3)n2NC(=O)c2ccccc2)cs1)c1ccccc1` came in with an IC50 in data set [1] of 698 nM. For the same molecule, in data set [2], the Activity entry is recorded as “Non-toxic”.

In the case of `CC(=O)Nn1c(Cc2csc(NC(=O)CCl)n2)nnc1SCC(=O)NNC(=O)c1ccccc1`, the IC50 in data set [1] was determined as 365 nM. Moreover, in data set [2], the Activity entry is recorded as “Non-toxic”.

With `Nn1c(CSc2nnc(Cc3csc(NC(=O)CCl)n3)n2NC(=O)c2ccc(Cl)cc2)n[nH]c1=S`, in data set [1], 3260 nM corresponded to half-maximal inhibition (IC50). Further, in data set [2], the Activity result is recorded as “Non-toxic”.

In data set [1], `CC(=O)Nc1nc(Cc2nnc(SCc3n[nH]c(=S)n3N)n2NC(=O)c2ccccc2)cs1` returned an IC50 of 6540 nM. For the same molecule, in data set [2], the Activity entry was “Non-toxic”.

Molecule `NNC(=O)CSc1nnc(Cc2csc(NC(=O)CCl)n2)n1NC(=O)c1ccccc1` displayed an IC50 in data set [1] of 246 nM. For the same molecule, in data set [2], the Activity result was “Non-toxic”.

For `O=C(CCl)Nc1nc(Cc2n[nH]c(=S)n2NC(=O)c2ccccc2)cs1`, the IC50 in data set [1] was determined as 761 nM. Further, the Activity entry in data set [2] is “Non-toxic”.

`O=C(O)CCNc1nc(Cc2nnc(SCC(=O)NNC(=O)CCl)n2NC(=O)c2ccc(Cl)cc2)cs1` returned an IC50 in data set [1] of 180 nM. Moreover, the Activity result in data set [2] was “Non-toxic”.

In turn, `O=C(Nc1nc(Cc2nnc(SCSc3nnc(Cc4csc(NC(=O)c5ccccc5)n4)n3NC(=O)c3ccc(Cl)cc3)n2NC(=O)c2ccc(Cl)cc2)cs1)c1ccccc1` displayed an IC50 in data set [1] of 640 nM. Moreover, the Activity entry in data set [2] is on record as “Non-toxic”.

Regarding `COC(=O)CSc1nnc(Cc2csc(NC(=O)CCl)n2)n1NC(=O)c1ccc(Cl)cc1`, the IC50 in data set [1] is 440 nM. For the same molecule, in data set [2], the Activity entry was “Non-toxic”.

Take `COC(=O)CSc1nnc(Cc2csc(NC(=O)c3ccccc3)n2)n1NC(=O)c1ccc(Cl)cc1`: the IC50 in data set [1] was found to be 290 nM. Also, in data set [2], the Activity result was “Non-toxic”.

On to `COC(=O)CSc1nnc(Cc2csc(NC(C)=O)n2)n1NC(=O)c1ccc(Cl)cc1`, for which, in data set [1], half-maximal inhibition (IC50) was put at 380 nM. Besides, the Activity entry in data set [2] was “Non-toxic”.

In data set [1], `Nn1c(CSc2nnc(Cc3csc(NC(=O)c4ccccc4)n3)n2NC(=O)c2ccccc2)n[nH]c1=S` gave an IC50 of 4650 nM. Moreover, in data set [2], the Activity result is “Non-toxic”.

`CC(=O)Nc1nc(Cc2nnc(SCSc3nnc(Cc4csc(NC(C)=O)n4)n3NC(C)=O)n2NC(C)=O)cs1`: the IC50 in data set [1] came to 847 nM. In data set [2], the Activity entry is on record as “Non-toxic”.

Turning to `N#CCSc1nnc(Cc2csc(NC(=O)c3ccccc3)n2)n1NC(=O)c1ccccc1`, the IC50 in data set [1] is 496 nM. Besides, in data set [2], the Activity entry is given as “Non-toxic”.

Regarding `CC(=O)NNC(=O)CSc1nnc(Cc2csc(NC(C)=O)n2)n1NC(=O)c1ccccc1`, the IC50 in data set [1] was 542 nM. Moreover, the Activity entry in data set [2] was “Non-toxic”.

Take `N#CCSc1nnc(Cc2csc(NCCC(=O)O)n2)n1NC(=O)c1ccccc1`: in data set [1], the IC50 stood at 487 nM. Further, the Activity entry in data set [2] was “Non-toxic”.

In turn, `CC(=O)Nn1c(Cc2csc(NC(=O)c3ccccc3)n2)nnc1SCC(=O)NNC(=O)CCl` came in with an IC50 in data set [1] of 356 nM. The Activity entry in data set [2] is “Non-toxic”.

For `N#CCSc1nnc(Cc2csc(NCCC(=O)O)n2)n1NC(=O)c1ccc(Cl)cc1`, the IC50 in data set [1] was 426 nM. The Activity result in data set [2] is given as “Non-toxic”.

`CC(=O)Nc1nc(Cc2nnc(SCC(=O)NNC(=O)CCl)n2NC(C)=O)cs1`: the IC50 in data set [1] came out at 476 nM. In addition, in data set [2], the Activity result is listed as “Non-toxic”.

The molecule `CC(=O)Nn1c(Cc2csc(NCCC(=O)O)n2)n[nH]c1=S` returned an IC50 in data set [1] of 436 nM. The Activity entry in data set [2] was “Non-toxic”.

In turn, `O=C(O)CCNc1nc(Cc2nnc(SCC(=O)N/N=C/c3ccccc3)n2NC(=O)c2ccc(Cl)cc2)cs1` showed an IC50 in data set [1] of 238 nM. The Activity entry in data set [2] is on record as “Non-toxic”.

Take `CC(=O)NNC(=O)CSc1nnc(Cc2csc(NC(=O)CCl)n2)n1NC(C)=O`: half-maximal inhibition in data set [1] (IC50) was put at 354 nM. Besides, the Activity result in data set [2] is given as “Non-toxic”.

As to `CC(=O)NNC(=O)CSc1nnc(Cc2csc(NCCC(=O)O)n2)n1NC(=O)c1ccccc1`, it took 472 nM to reach half-maximal inhibition in data set [1] (IC50). Besides, in data set [2], the Activity entry is “Non-toxic”.

On to `O=C(CSc1nnc(Cc2csc(NC(=O)CCl)n2)n1NC(=O)c1ccccc1)NNC(=O)c1ccccc1`, for which, in data set [1], the IC50 is 467 nM. Moreover, in data set [2], the Activity result is on record as “Non-toxic”.

`CC(=O)Nn1c(Cc2csc(NC(=O)CCl)n2)nnc1SCC(=O)NNC(=O)CCl` displayed an IC50 in data set [1] of 462 nM. Besides, the Activity result in data set [2] is “Non-toxic”.

`CC(=O)Nc1nc(Cc2nnc(SCSc3nnc(Cc4csc(NC(C)=O)n4)n3NC(=O)c3ccc(Cl)cc3)n2NC(=O)c2ccc(Cl)cc2)cs1` gave an IC50 in data set [1] of 382 nM. For the same molecule, the Activity entry in data set [2] is given as “Non-toxic”.

In data set [1], `COC(=O)CSc1nnc(Cc2csc(NCCC(=O)O)n2)n1NC(=O)c1ccccc1` gave an IC50 of 648 nM. The Activity entry in data set [2] was “Non-toxic”.

`CC(=O)Nn1c(Cc2csc(NC(=O)CCl)n2)nnc1SCc1nnc(S)n1N` displayed an IC50 in data set [1] of 4640 nM. In data set [2], the Activity result is listed as “Non-toxic”.

Take `CC(=O)Nc1nc(Cc2nnc(SCC(=O)N/N=C/c3ccccc3)n2NC(=O)c2ccccc2)cs1`: inhibition in data set [1] was half-maximal at 485 nM (IC50). For the same molecule, the Activity result in data set [2] is “Non-toxic”.

`CC(=O)Nc1nc(Cc2nnc(SCc3n[nH]c(=S)n3N)n2NC(=O)c2ccc(Cl)cc2)cs1` had an IC50 in data set [1] of 7480 nM. For the same molecule, in data set [2], the Activity entry is listed as “Non-toxic”.

For the molecule `COC(=O)CSc1nnc(Cc2csc(NC(=O)CCl)n2)n1NC(=O)c1ccccc1`, in data set [1], the IC50 was found to be 674 nM. Besides, in data set [2], the Activity entry was “Non-toxic”.

For `Nn1c(Cc2csc(NC(=O)c3ccccc3)n2)n[nH]c1=S`, it took 630 nM to reach half-maximal inhibition in data set [1] (IC50). Besides, the Activity result in data set [2] was “Non-toxic”.

The molecule `O=C(CSc1nnc(Cc2csc(NC(=O)c3ccccc3)n2)n1NC(=O)c1ccc(Cl)cc1)NNC(=O)c1ccccc1` yielded an IC50 in data set [1] of 484 nM. The Activity result in data set [2] is on record as “Non-toxic”.

Molecule `O=C(O)CCNc1nc(Cc2nnc(SCC(=O)N/N=C/c3ccccc3)n2NC(=O)c2ccccc2)cs1` displayed a concentration for half-maximal inhibition (IC50) in data set [1] of 526 nM. Also, the Activity result in data set [2] is “Non-toxic”.

`CC(=O)Nn1c(Cc2csc(NC(=O)CCl)n2)nnc1SCC(=O)NN` returned an IC50 in data set [1] of 201 nM. For the same molecule, the Activity entry in data set [2] was “Non-toxic”.
